Data from patent US7795290B2 (Genentech, Inc., priority 2004, dated 2010).
One block for each compound: values may come before it.

Columns and labels:
Experiment in all cases: HTS ATP-utilizing enzyme assay, off-chip mobility-shift (Caliper HTS 250)
Format in all cases: biochemical
Settings in all cases: kinase named = inhibitory activity/selectivity; test compound 10 μM; active = greater than three-sigma from mean
[1] = molecular target: CDK2 (Homo sapiens, UniProt P24941)
In short: (§1)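 Single-point screen at 10 µM compound: kinase reactions ran 2.5 h at 20–22 °C and were stopped with termination buffer. Inhibition was read as the substrate-to-phosphopeptide ratio by microfluidic mobility shift, with EDTA and DMSO wells as controls. Hits were called by three-sigma limits.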

[2] = molecular target: T1, BMX (Homo sapiens, UniProt P51813)
T1 sequence (P51813 1-675): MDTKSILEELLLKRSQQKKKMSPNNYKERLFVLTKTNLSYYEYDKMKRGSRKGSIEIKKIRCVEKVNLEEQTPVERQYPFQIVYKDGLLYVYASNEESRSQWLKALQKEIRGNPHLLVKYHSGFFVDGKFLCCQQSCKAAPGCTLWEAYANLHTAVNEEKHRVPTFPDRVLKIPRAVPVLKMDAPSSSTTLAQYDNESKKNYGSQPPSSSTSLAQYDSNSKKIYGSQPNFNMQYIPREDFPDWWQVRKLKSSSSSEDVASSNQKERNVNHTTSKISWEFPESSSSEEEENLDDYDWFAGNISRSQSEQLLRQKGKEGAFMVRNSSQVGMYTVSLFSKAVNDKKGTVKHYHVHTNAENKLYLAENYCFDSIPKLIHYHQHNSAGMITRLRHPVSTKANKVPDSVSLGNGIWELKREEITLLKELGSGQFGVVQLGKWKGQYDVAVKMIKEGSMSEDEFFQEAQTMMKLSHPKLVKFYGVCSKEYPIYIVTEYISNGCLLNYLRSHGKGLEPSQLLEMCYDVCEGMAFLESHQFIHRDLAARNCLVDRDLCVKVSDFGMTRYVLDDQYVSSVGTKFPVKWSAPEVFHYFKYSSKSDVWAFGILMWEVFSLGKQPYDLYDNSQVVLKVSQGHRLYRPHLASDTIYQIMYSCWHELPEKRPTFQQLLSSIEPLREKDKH
In short: as §1

[3] = molecular target: CDK2/cyclin E (Homo sapiens, UniProt P24941)
In short: as §1

[4] = molecular target: T2, AKT1 (Homo sapiens, UniProt P31749)
T2 construct: purchased Upstate 14-276
T2 sequence (P31749 whole entry): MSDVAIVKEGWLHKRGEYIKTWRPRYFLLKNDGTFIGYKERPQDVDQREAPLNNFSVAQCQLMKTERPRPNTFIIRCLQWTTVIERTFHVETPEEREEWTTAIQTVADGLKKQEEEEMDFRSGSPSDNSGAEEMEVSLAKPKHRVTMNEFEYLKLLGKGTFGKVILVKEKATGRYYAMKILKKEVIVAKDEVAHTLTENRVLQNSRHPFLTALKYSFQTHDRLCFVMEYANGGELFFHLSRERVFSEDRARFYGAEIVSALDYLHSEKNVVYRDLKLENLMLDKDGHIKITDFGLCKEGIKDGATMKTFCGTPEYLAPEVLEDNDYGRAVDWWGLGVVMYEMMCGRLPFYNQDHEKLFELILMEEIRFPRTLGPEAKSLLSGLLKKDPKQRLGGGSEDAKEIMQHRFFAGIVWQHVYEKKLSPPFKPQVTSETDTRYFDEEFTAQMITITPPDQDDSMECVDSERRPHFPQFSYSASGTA
In short: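 AKT1 activity was measured by off-chip mobility shift (Caliper HTS 250) as the ratio of peptide substrate to phosphorylated product. Test compound was at 10 μM, with 2.5 h incubation at 20–22° C. EDTA wells served as 100% control and DMSO wells as 0%. Hits were called at three-sigma limits.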

[5] = molecular target: SYK (Homo sapiens, UniProt P43405)
In short: as §1

[6] = molecular target: T3, PDK1 (Homo sapiens, UniProt O15530)
T3 sequence (O15530 1-556): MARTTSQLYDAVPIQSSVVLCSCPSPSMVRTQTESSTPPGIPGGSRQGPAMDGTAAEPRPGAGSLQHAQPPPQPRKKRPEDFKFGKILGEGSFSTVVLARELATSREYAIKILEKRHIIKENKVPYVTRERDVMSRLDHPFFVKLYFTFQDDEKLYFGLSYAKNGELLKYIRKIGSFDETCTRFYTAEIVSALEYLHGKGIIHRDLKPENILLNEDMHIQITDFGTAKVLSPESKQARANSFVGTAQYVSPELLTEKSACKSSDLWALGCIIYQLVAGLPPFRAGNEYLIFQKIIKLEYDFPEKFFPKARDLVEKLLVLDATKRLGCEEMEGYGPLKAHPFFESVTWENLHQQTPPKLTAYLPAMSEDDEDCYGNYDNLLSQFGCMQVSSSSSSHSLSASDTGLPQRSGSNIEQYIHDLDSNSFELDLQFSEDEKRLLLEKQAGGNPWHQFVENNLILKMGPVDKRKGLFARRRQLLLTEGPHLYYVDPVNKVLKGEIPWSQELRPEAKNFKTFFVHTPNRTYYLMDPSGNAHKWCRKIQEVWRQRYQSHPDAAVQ
In short: as §1

[7] = molecular target: KIT (Homo sapiens, UniProt P10721)
Sequence of KIT (P10721 26-976): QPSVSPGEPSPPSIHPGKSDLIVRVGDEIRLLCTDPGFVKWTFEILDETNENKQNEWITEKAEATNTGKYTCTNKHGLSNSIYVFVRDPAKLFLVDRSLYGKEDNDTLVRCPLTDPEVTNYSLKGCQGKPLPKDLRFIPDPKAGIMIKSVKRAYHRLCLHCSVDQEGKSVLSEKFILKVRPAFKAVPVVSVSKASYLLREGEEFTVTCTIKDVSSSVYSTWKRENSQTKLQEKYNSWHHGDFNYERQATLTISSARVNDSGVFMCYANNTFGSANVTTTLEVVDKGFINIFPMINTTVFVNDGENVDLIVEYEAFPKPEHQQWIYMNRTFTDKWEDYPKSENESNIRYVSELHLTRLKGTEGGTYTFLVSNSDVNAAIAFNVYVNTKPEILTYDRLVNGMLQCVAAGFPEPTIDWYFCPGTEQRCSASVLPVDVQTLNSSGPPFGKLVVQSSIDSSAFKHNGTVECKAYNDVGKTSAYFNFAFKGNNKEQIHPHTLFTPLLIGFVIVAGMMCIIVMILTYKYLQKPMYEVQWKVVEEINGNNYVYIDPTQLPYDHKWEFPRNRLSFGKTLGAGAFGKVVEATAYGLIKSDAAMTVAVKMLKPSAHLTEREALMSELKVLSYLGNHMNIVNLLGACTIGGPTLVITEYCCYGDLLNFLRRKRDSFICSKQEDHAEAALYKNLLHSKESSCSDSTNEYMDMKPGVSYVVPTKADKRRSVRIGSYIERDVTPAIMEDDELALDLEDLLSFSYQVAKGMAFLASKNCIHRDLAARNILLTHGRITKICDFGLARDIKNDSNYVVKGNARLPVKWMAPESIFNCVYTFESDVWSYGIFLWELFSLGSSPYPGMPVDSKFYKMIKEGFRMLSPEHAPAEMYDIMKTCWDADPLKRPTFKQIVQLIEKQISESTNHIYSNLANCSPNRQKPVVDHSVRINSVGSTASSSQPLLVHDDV
In short: as §1

[8] = molecular target: T4, ZAP70 (Homo sapiens, UniProt P43403)
T4 sequence (P43403 1-619): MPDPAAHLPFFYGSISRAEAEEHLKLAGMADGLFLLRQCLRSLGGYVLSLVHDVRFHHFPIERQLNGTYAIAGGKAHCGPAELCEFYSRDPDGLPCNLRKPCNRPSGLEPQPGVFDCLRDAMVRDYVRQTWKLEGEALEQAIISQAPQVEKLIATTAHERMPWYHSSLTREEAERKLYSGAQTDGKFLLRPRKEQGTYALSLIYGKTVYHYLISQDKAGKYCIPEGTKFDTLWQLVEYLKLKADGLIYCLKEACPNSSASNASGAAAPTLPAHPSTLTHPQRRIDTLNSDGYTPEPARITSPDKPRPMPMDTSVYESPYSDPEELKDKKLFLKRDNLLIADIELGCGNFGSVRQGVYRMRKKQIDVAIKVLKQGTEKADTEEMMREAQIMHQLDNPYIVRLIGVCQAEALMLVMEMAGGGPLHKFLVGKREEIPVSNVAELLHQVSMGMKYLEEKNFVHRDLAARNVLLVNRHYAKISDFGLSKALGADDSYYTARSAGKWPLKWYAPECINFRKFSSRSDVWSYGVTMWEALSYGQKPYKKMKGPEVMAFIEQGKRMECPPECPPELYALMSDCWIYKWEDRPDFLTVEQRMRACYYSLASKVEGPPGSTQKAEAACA
In short: as §1

[9] = molecular target: T5, DYRK2 (Homo sapiens, UniProt Q92630)
T5 sequence (Q92630 1-601): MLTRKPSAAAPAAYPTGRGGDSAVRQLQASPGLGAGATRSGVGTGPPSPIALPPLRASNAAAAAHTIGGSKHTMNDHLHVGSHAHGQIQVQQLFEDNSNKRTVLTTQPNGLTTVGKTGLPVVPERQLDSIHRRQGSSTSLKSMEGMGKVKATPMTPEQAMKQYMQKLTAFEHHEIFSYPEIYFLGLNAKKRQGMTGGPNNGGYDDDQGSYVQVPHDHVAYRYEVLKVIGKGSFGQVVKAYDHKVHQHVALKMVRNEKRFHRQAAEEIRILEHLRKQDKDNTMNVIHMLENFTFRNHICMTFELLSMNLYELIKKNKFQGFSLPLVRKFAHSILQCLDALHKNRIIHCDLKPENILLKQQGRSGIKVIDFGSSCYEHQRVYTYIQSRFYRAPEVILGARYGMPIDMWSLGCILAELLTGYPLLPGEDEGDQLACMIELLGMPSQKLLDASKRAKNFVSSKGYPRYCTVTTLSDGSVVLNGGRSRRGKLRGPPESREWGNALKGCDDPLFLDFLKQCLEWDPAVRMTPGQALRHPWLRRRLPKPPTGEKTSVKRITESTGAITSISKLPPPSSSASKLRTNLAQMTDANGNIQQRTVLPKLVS
In short: as §1

[10] = molecular target: PDGFR-α (Homo sapiens, UniProt P16234)
Sequence of PDGFR-α (P16234 24-1089): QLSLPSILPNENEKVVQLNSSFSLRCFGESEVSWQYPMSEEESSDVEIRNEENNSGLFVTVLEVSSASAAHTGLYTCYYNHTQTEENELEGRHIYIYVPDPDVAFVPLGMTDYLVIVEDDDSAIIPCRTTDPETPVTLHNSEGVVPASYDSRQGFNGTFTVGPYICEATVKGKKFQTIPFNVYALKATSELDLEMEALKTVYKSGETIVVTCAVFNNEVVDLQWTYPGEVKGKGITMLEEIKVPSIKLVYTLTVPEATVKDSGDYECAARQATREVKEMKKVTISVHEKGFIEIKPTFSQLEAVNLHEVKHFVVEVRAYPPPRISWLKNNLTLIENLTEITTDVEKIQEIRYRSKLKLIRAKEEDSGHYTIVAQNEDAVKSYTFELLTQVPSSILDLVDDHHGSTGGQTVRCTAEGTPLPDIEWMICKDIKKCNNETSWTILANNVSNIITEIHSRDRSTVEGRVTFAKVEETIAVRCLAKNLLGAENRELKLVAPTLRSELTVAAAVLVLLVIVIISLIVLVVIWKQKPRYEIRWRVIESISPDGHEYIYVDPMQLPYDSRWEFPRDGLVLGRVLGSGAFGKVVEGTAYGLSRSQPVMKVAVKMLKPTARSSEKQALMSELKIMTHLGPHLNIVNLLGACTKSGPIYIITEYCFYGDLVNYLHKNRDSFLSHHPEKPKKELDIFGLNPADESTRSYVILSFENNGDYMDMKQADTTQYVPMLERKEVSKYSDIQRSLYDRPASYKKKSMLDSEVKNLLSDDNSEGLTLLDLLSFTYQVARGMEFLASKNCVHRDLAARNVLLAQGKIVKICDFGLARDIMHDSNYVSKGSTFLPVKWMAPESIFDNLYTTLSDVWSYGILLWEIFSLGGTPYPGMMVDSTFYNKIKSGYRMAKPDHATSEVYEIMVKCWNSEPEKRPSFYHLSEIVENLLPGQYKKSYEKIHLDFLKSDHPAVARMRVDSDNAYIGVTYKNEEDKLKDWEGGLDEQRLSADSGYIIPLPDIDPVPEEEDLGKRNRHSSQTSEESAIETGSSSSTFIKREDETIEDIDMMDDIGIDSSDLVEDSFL
In short: as §1

[11] = molecular target: T6, FLT-3 (Homo sapiens, UniProt P36888)
T6 sequence (P36888 27-993): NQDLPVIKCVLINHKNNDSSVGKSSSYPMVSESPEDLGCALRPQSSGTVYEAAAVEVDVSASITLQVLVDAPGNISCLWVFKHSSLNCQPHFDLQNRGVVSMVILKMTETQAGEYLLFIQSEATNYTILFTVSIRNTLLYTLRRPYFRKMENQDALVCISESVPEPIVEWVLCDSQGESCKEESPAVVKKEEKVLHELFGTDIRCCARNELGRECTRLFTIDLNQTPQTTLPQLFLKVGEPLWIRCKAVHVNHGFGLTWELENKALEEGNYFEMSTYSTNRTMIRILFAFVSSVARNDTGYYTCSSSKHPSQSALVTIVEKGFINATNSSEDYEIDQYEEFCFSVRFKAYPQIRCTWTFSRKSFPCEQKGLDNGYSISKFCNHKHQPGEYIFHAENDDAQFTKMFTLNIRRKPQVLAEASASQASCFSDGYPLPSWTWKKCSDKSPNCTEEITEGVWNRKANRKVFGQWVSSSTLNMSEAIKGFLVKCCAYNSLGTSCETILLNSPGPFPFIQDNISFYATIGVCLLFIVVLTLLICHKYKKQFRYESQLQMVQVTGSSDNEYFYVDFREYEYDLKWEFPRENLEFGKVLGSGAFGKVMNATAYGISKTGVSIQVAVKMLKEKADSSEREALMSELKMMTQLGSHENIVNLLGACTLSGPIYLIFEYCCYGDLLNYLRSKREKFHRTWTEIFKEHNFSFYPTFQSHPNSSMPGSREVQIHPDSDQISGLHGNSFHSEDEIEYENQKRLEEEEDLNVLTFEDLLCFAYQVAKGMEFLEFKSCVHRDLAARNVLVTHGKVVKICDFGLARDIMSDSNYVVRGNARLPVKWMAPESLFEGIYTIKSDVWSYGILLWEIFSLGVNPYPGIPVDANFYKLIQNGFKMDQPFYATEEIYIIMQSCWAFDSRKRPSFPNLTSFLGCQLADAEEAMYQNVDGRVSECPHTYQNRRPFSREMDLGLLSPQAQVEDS
In short: as §1

[12] = molecular target: CHEK2 (Homo sapiens, UniProt O96017)
Sequence of CHEK2 (O96017 whole entry): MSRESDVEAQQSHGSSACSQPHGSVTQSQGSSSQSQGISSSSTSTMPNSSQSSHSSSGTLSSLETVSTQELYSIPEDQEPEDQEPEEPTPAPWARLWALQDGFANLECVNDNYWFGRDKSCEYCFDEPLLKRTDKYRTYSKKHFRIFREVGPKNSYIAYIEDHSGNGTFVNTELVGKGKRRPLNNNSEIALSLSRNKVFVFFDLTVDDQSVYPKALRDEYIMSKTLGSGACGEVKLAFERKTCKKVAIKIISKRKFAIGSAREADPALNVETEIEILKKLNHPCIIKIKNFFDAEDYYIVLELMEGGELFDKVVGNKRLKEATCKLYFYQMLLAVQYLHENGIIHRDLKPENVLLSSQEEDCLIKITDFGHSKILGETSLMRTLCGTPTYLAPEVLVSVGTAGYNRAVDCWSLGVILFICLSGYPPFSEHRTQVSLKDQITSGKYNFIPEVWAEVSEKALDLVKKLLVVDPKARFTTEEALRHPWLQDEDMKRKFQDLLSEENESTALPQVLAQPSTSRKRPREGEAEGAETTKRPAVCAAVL
In short: as §1

[13] = molecular target: MAPKAPK-2 (Homo sapiens, UniProt P49137)
Sequence of MAPKAPK-2 (P49137 whole entry): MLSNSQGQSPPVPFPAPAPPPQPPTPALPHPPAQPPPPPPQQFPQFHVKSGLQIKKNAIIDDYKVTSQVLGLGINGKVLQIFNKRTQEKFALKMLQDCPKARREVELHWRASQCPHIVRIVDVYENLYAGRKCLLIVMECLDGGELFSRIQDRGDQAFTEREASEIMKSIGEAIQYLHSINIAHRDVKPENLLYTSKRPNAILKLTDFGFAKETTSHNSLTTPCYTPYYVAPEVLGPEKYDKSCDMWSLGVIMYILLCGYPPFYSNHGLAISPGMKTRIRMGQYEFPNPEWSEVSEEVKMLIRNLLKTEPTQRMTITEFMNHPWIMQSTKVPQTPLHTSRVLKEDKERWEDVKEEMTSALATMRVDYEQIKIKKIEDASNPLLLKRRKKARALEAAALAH
In short: as §1

[14] = molecular target: INSR (Homo sapiens, UniProt P06213)
Sequence of INSR (P06213 28-1382): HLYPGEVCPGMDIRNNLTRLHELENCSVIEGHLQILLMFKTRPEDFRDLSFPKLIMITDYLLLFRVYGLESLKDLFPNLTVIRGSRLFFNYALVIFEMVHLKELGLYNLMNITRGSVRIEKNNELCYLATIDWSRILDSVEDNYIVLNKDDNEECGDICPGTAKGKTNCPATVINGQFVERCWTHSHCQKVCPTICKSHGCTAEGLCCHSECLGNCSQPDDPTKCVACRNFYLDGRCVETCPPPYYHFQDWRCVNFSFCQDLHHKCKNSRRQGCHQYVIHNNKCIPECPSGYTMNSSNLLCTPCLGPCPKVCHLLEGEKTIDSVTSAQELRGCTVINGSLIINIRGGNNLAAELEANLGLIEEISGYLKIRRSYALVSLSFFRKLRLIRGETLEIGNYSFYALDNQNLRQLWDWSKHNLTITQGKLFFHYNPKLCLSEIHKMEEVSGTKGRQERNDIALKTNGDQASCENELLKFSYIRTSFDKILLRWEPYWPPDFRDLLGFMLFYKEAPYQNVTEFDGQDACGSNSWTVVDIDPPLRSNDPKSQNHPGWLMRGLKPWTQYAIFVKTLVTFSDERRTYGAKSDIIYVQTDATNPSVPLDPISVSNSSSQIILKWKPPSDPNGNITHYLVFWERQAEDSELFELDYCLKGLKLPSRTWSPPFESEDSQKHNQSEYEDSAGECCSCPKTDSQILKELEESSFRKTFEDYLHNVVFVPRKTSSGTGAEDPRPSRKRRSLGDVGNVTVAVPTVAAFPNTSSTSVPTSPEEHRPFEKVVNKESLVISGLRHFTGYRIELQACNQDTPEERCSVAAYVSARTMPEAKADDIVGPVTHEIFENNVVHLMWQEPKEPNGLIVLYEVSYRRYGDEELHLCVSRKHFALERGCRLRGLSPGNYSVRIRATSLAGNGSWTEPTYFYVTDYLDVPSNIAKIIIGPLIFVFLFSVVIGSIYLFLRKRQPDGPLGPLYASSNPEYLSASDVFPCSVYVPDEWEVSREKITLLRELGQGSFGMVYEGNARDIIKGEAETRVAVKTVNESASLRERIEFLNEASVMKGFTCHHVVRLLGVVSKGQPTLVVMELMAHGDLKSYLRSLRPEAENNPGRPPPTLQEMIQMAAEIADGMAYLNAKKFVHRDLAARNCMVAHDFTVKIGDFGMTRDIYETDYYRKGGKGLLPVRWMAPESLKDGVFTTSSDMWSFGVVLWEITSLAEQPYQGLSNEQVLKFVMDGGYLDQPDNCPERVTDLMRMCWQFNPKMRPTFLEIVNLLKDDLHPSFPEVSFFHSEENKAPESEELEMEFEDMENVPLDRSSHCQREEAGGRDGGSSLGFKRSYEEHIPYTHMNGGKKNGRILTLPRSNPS
In short: as §1

SMILES: COc1ccc(-c2csc(N(CCCN3CCOCC3)C(=O)c3cc(Cl)sc3Cl)n2)cc1 [2,5-dichloro-N-(4-(4-methoxyphenyl)thiazol-2-yl)-N-(3-morpholinopropyl)thiophene-3-carboxamide]
Activity [1]: CDK2

SMILES: O=C(c1cccs1)N(CCCN1CCOCC1)c1nc(-c2cccnc2)cs1 [N-(3-morpholinopropyl)-N-(4-(pyridin-3-yl)thiazol-2-yl)thiophene-2-carboxamide]
Activity [3]: CDK2/cyclin E
Activity [4]: AKT1

SMILES: CCN(CC)c1ccc(-c2csc(N(CCCN3CCOCC3)C(=O)c3cccs3)n2)cc1 [N-(4-(4-(diethylamino)phenyl)thiazol-2-yl)-N-(3-morpholinopropyl)thiophene-2-carboxamide]
Activity [5]: SYK
Activity [4]: AKT1

SMILES: COc1ccc(-c2csc(N(CCCN3CCOCC3)C(=O)c3sc(C)nc3C)n2)cc1 [N-(4-(4-methoxyphenyl)thiazol-2-yl)-2,4-dimethyl-N-(3-morpholinopropyl)thiazole-5-carboxamide]
Activity [6]: PDK1

SMILES: COc1ccc(-c2csc(N(CCCN3CCOCC3)C(=O)c3ccc(C)cc3)n2)cc1 [N-(4-(4-methoxyphenyl)thiazol-2-yl)-4-methyl-N-(3-morpholinopropyl)benzamide]
Activity [11]: FLT-3

SMILES: COc1ccc(-c2csc(N(CCCN3CCN(C)CC3)C(=O)c3ccco3)n2)cc1 [N-(4-(4-methoxyphenyl)thiazol-2-yl)-N-(3-(4-methylpiperazin-1-yl)propyl)furan-2-carboxamide]
Activity [12]: CHEK2
Activity [13]: MAPKAPK-2
Activity [4]: AKT1

SMILES: COc1ccc(-c2csc(N(CCCN3CCN(C)CC3)C(=O)c3cccs3)n2)cc1 [N-(4-(4-methoxyphenyl)thiazol-2-yl)-N-(3-(4-methylpiperazin-1-yl)propyl)thiophene-2-carboxamide]
Activity [14]: INSR
Activity [4]: AKT1

SMILES: COc1ccc(-c2csc(N(CCCN3CCOCC3)C(=O)c3ccc([N+](=O)[O-])s3)n2)cc1 [N-(4-(4-methoxyphenyl)thiazol-2-yl)-N-(3-morpholinopropyl)-5-nitrothiophene-2-carboxamide]
Activity [7]: KIT
Activity [8]: ZAP70
Activity [11]: FLT-3

Continued, values first:

Activity [2]: BMX
SMILES: COc1ccc(-c2csc(N(CCCN3CCOCC3)C(=O)Cc3ccccc3Cl)n2)cc1 [2-(2-chlorophenyl)-N-(4-(4-methoxyphenyl)thiazol-2-yl)-N-(3-morpholinopropyl)acetamide]

Activity [3]: CDK2/cyclin E
SMILES: COc1ccc(-c2csc(N(CCCN3CCOCC3)C(=O)c3cc(C)n(C)c3C)n2)cc1 [N-(4-(4-methoxyphenyl)thiazol-2-yl)-1,2,5-trimethyl-N-(3-morpholinopropyl)-1H-pyrrole-3-carboxamide]

Activity [7]: KIT
Activity [8]: ZAP70
Activity [9]: DYRK2
Activity [10]: PDGFR-α
Activity [11]: FLT-3
SMILES: COc1ccc(-c2csc(N(CCCN3CCOCC3)C(=O)c3snnc3C)n2)cc1 [N-(4-(4-methoxyphenyl)thiazol-2-yl)-4-methyl-N-(3-morpholinopropyl)-1,2,3-thiadiazole-5-carboxamide]
